Reference: PubChem BioAssay AID1963850 (Molecular Pharmacology Branch, DTP, NCI, 2024)

Tested on: 192522-019-R-J2-PDC complex tumor spheroid viability
Test: Anticancer human tumor 192522-019-R-J2-PDC patient-derived colon adenocarcinoma cell line growth inhibition [POLQ]
Conditions: for IC50: curve of first compound; for viability, T/C: stronger effect = lower value
Outline: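 Complex spheroid viability model combining PDC tumour cells with endothelial (HUVEC) and MSC stromal cells. Novobiocin, ART-558 or RP6685 were tested singly and in combination with standard and investigational anticancer drugs. Each was titrated in half-log steps from near clinical Cmax, or from 10 microM where Cmax was unknown.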

[1] = second compound 0.0316 µM, first compound 0.0316 µM
[2] = second compound 0.0316 µM, first compound 0.1 µM
[3] = second compound 0.0316 µM, first compound 0.316 µM
[4] = second compound 0.0316 µM, first compound 1 µM
[5] = second compound 0.0316 µM, first compound 3.16 µM
[6] = second compound 0.0316 µM, first compound 10 µM
[7] = second compound 0.1 µM, first compound 0.0316 µM
[8] = second compound 0.1 µM, first compound 0.1 µM
[9] = second compound 0.1 µM, first compound 0.316 µM
[10] = second compound 0.1 µM, first compound 1 µM
[11] = second compound 0.1 µM, first compound 3.16 µM
[12] = second compound 0.1 µM, first compound 10 µM
[13] = second compound 0.316 µM, first compound 0.0316 µM
[14] = second compound 0.316 µM, first compound 0.1 µM
[15] = second compound 0.316 µM, first compound 0.316 µM
[16] = second compound 0.316 µM, first compound 1 µM
[17] = second compound 0.316 µM, first compound 3.16 µM
[18] = second compound 0.316 µM, first compound 10 µM
[19] = second compound 1 µM, first compound 0.0316 µM
[20] = second compound 1 µM, first compound 0.1 µM
[21] = second compound 1 µM, first compound 0.316 µM
[22] = second compound 1 µM, first compound 1 µM
[23] = second compound 1 µM, first compound 3.16 µM
[24] = second compound 1 µM, first compound 10 µM
[25] = second compound 3.16 µM, first compound 0.0316 µM
[26] = second compound 3.16 µM, first compound 0.1 µM
[27] = second compound 3.16 µM, first compound 0.316 µM
[28] = second compound 3.16 µM, first compound 1 µM
[29] = second compound 3.16 µM, first compound 3.16 µM
[30] = second compound 3.16 µM, first compound 10 µM
[31] = second compound 10 µM, first compound 0.0316 µM
[32] = second compound 10 µM, first compound 0.1 µM
[33] = second compound 10 µM, first compound 0.316 µM
[34] = second compound 10 µM, first compound 1 µM
[35] = second compound 10 µM, first compound 3.16 µM
[36] = second compound 10 µM, first compound 10 µM
[37] = second compound 0.0316 µM, first compound 0.00316 µM
[38] = second compound 0.0316 µM, first compound 0.01 µM
[39] = second compound 0.1 µM, first compound 0.00316 µM
[40] = second compound 0.1 µM, first compound 0.01 µM
[41] = second compound 0.316 µM, first compound 0.00316 µM
[42] = second compound 0.316 µM, first compound 0.01 µM
[43] = second compound 1 µM, first compound 0.00316 µM
[44] = second compound 1 µM, first compound 0.01 µM
[45] = second compound 3.16 µM, first compound 0.00316 µM
[46] = second compound 3.16 µM, first compound 0.01 µM
[47] = second compound 10 µM, first compound 0.00316 µM
[48] = second compound 10 µM, first compound 0.01 µM
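Note: spheroids exposed to drugs for seven days before reading.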
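Throughout, for viability, T/C: 100% = DMSO vehicle control viability in luminescence.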

CC1COCCN1c1cc(C2(S(C)(=N)=O)CC2)nc(-c2ccnc3[nH]ccc23)n1 (stereo not drawn) + COC1C(OC(N)=O)C(O)C(Oc2ccc3c(O)c(NC(=O)c4ccc(O)c(CC=C(C)C)c4)c(=O)oc3c2C)OC1(C)C
IC50 (second compound 0.0316 µM): 4.72 µM
IC50 (second compound 0.1 µM): 4.58 µM
IC50 (second compound 0.316 µM): 3.33 µM
IC50 (second compound 1 µM): 5.31 µM
IC50 (second compound 3.16 µM): 5.42 µM
IC50 (second compound 10 µM): 5.18 µM
viability, T/C [1]: 108%
viability, T/C [2]: 94.3%
viability, T/C [3]: 99.6%
viability, T/C [4]: 97.3%
viability, T/C [5]: 61.3%
viability, T/C [6]: 28.7%
viability, T/C [7]: 118%
viability, T/C [8]: 99%
viability, T/C [9]: 103%
viability, T/C [10]: 95.4%
viability, T/C [11]: 56.2%
viability, T/C [12]: 36.1%
viability, T/C [13]: 103%
viability, T/C [14]: 99.2%
viability, T/C [15]: 108%
viability, T/C [16]: 95.8%
viability, T/C [17]: 51%
viability, T/C [18]: 31.9%
viability, T/C [19]: 101%
viability, T/C [20]: 103%
viability, T/C [21]: 99%
viability, T/C [22]: 97.3%
viability, T/C [23]: 63.1%
viability, T/C [24]: 34%
viability, T/C [25]: 102%
viability, T/C [26]: 109%
viability, T/C [27]: 104%
viability, T/C [28]: 91.8%
viability, T/C [29]: 60.9%
viability, T/C [30]: 37.8%
viability, T/C [31]: 104%
viability, T/C [32]: 103%
viability, T/C [33]: 114%
viability, T/C [34]: 95.7%
viability, T/C [35]: 62.9%
viability, T/C [36]: 33.2%

CNCc1ccc(-c2[nH]c3cc(F)cc4c3c2CCNC4=O)cc1 + COC1C(OC(N)=O)C(O)C(Oc2ccc3c(O)c(NC(=O)c4ccc(O)c(CC=C(C)C)c4)c(=O)oc3c2C)OC1(C)C
IC50 (second compound 0.0316 µM): > 10 µM
IC50 (second compound 0.1 µM): > 10 µM
IC50 (second compound 0.316 µM): > 10 µM
IC50 (second compound 1 µM): > 10 µM
IC50 (second compound 3.16 µM): > 10 µM
IC50 (second compound 10 µM): > 10 µM
viability, T/C [1]: 94.4%
viability, T/C [2]: 90.5%
viability, T/C [3]: 96%
viability, T/C [4]: 99.2%
viability, T/C [5]: 102%
viability, T/C [6]: 99.3%
viability, T/C [7]: 110%
viability, T/C [8]: 96%
viability, T/C [9]: 96.4%
viability, T/C [10]: 103%
viability, T/C [11]: 114%
viability, T/C [12]: 96.4%
viability, T/C [13]: 107%
viability, T/C [14]: 102%
viability, T/C [15]: 102%
viability, T/C [16]: 107%
viability, T/C [17]: 99.5%
viability, T/C [18]: 101%
viability, T/C [19]: 99.7%
viability, T/C [20]: 96%
viability, T/C [21]: 98.5%
viability, T/C [22]: 104%
viability, T/C [23]: 102%
viability, T/C [24]: 97.5%
viability, T/C [25]: 110%
viability, T/C [26]: 98.7%
viability, T/C [27]: 102%
viability, T/C [28]: 101%
viability, T/C [29]: 99.9%
viability, T/C [30]: 95.7%
viability, T/C [31]: 102%
viability, T/C [32]: 95%
viability, T/C [33]: 106%
viability, T/C [34]: 96.9%
viability, T/C [35]: 98.6%
viability, T/C [36]: 102%

COc1cccc(OCCCN)c1-c1cc(Nc2cnc(C#N)cn2)n[nH]1 + COC1C(OC(N)=O)C(O)C(Oc2ccc3c(O)c(NC(=O)c4ccc(O)c(CC=C(C)C)c4)c(=O)oc3c2C)OC1(C)C
IC50 (second compound 0.0316 µM): 0.0143 µM
IC50 (second compound 0.1 µM): 0.0157 µM
IC50 (second compound 0.316 µM): 0.0158 µM
IC50 (second compound 1 µM): 0.0166 µM
IC50 (second compound 3.16 µM): 0.0186 µM
IC50 (second compound 10 µM): 0.0189 µM
viability, T/C [37]: 96%
viability, T/C [38]: 55.5%
viability, T/C [1]: 38%
viability, T/C [2]: 30.8%
viability, T/C [3]: 30.7%
viability, T/C [4]: 30.5%
viability, T/C [39]: 94.7%
viability, T/C [40]: 58.7%
viability, T/C [7]: 35.3%
viability, T/C [8]: 35%
viability, T/C [9]: 28.9%
viability, T/C [10]: 28.2%
viability, T/C [41]: 90%
viability, T/C [42]: 60.6%
viability, T/C [13]: 33.6%
viability, T/C [14]: 31.8%
viability, T/C [15]: 27.2%
viability, T/C [16]: 29.9%
viability, T/C [43]: 84.8%
viability, T/C [44]: 61.8%
viability, T/C [19]: 35.2%
viability, T/C [20]: 30.1%
viability, T/C [21]: 30.9%
viability, T/C [22]: 30.5%
viability, T/C [45]: 87.6%
viability, T/C [46]: 69.5%
viability, T/C [25]: 33.3%
viability, T/C [26]: 28.9%
viability, T/C [27]: 35.6%
viability, T/C [28]: 32.1%
viability, T/C [47]: 89.7%
viability, T/C [48]: 64.6%
viability, T/C [31]: 38.4%
viability, T/C [32]: 32%
viability, T/C [33]: 32.5%
viability, T/C [34]: 34%

Cn1ncnc1[C@H]1c2n[nH]c(=O)c3cc(F)cc(c23)N[C@@H]1c1ccc(F)cc1 + COC1C(OC(N)=O)C(O)C(Oc2ccc3c(O)c(NC(=O)c4ccc(O)c(CC=C(C)C)c4)c(=O)oc3c2C)OC1(C)C
IC50 (second compound 0.0316 µM): > 0.1 µM
IC50 (second compound 0.1 µM): > 0.1 µM
IC50 (second compound 0.316 µM): > 0.1 µM
IC50 (second compound 1 µM): > 0.1 µM
IC50 (second compound 3.16 µM): > 0.1 µM
IC50 (second compound 10 µM): > 0.1 µM
viability, T/C (second compound 0.0316 µM, first compound 0.000316 µM): 118%
viability, T/C (second compound 0.0316 µM, first compound 0.001 µM): 91.9%
viability, T/C [37]: 95.2%
viability, T/C [38]: 96.6%
viability, T/C [1]: 102%
viability, T/C [2]: 91.4%
viability, T/C (second compound 0.1 µM, first compound 0.000316 µM): 103%
viability, T/C (second compound 0.1 µM, first compound 0.001 µM): 100%
viability, T/C [39]: 103%
viability, T/C [40]: 103%
viability, T/C [7]: 100%
viability, T/C [8]: 97.2%
viability, T/C (second compound 0.316 µM, first compound 0.000316 µM): 99.9%
viability, T/C (second compound 0.316 µM, first compound 0.001 µM): 99.2%
viability, T/C [41]: 99.4%
viability, T/C [42]: 97.4%
viability, T/C [13]: 93.8%
viability, T/C [14]: 87.2%
viability, T/C (second compound 1 µM, first compound 0.000316 µM): 98.8%
viability, T/C (second compound 1 µM, first compound 0.001 µM): 95.6%
viability, T/C [43]: 101%
viability, T/C [44]: 99.2%
viability, T/C [19]: 86.5%
viability, T/C [20]: 95.1%
viability, T/C (second compound 3.16 µM, first compound 0.000316 µM): 110%
viability, T/C (second compound 3.16 µM, first compound 0.001 µM): 98.8%
viability, T/C [45]: 108%
viability, T/C [46]: 98.1%
viability, T/C [25]: 95.8%
viability, T/C [26]: 90.5%
viability, T/C (second compound 10 µM, first compound 0.000316 µM): 108%
viability, T/C (second compound 10 µM, first compound 0.001 µM): 89.8%
viability, T/C [47]: 96.4%
viability, T/C [48]: 102%
viability, T/C [31]: 107%
viability, T/C [32]: 94.4%
